These results are taken from paper PMC5662840, “Effect of Gelsemium elegans and Mussaenda pubescens, the Components of a Detoxification Herbal Formula, on Disturbance of the Intestinal Absorptions of Indole Alkaloids in Caco-2 Cells” (Evidence-based Complementary and Alternative Medicine : eCAM, 2017).

Broadly, the Papp A→B is the apparent permeability from the apical to the basolateral side of a cell layer. The term Papp B→A denotes the apparent permeability from the basolateral to the apical side of a cell layer.

The nature of data set [1]: Bidirectional transport of indole alkaloids from GE and GM extracts across Caco-2 cells monolayer. The class given is in vitro ADME, Human. The settings on record: human; for efflux ratio at 4 h / efflux ratio: Caco-2, GM without inhibitor, read-out: efflux ratio γ (Papp BL-AP / Papp AP-BL); for Papp A→B at 4 h / Papp B→A at 4 h / Papp A→B / Papp B→A: Caco-2, GM (control group), mean ± SEM, n = 3; for Papp A→B at 4 h / Papp A→B: apical-to-basolateral; for Papp B→A at 4 h / Papp B→A: basolateral-to-apical. The method, then: (§1) Human colon adenocarcinoma cell lines (Caco-2) were obtained from the cell bank of Chinese Academy of Sciences (Beijing, China). Cells were routinely grown in DMEM supplemented with 10% (v/v) fetal bovine serum, 1% (v/v) glutamine, 1% (v/v) nonessential amino acid solution, and 100 U/mL penicillin-streptomycin solution under a humidified atmosphere of 5% CO2 at 37°C. The medium was replaced every 2 days after incubation. After reaching 80% confluence, cells were passaged at a split ratio of 1 : 5, using 0.05% trypsin-EDTA. For the transport experiments, the cells of passages were seeded at a density of 1.0 × 10^6 cells/cm^2 on permeable polycarbonate inserts in 6-well tissue culture plates (Transwell Polycarbonate Membrance Insert 3414, Corning, USA), which has a surface area of 4.2 cm^2. Culture medium was changed every two days for 14 days and daily thereafter for the next 7 days. In our culture condition, cells monolayer, after seeding approximately between 19 and 21 days, usually was available for transport experiments.
(§2) The extracts, including GE and GM, were freshly prepared to the desired final concentration in DMSO. The final concentrations of DMSO in the incubation system were controlled within 0.1% (v/v) in all subsequent experiments. All transport experiments were conducted at 37°C unless specified otherwise. Transport of indole alkaloids across the Caco-2 cells monolayer was studied using monolayer of 19–21 days after seeding. Before the experiment, the monolayer was washed twice and preincubated with the blank HBSS for 1 h. Thereafter the HBSS solution on both sides of the cells monolayer was aspirated.
(§3) Transport studies were conducted in the absorptive direction (apical- (AP-) basolateral (BL)) and the efflux direction (BL-AP), separately. For determination of AP to BL transport, 2.5 mL of sample solutions was added to the AP side, respectively, and 2.5 mL of blank HBSS was added to the BL side. For determination of BL to AP transport, 2.5 mL of sample solutions was added to the BL side, respectively, and 2.5 mL of blank HBSS was added to the AP side. The cells monolayer was then put into a shaker at 50 rpm during the transport process. 400 μL of samples was taken for LC-MS/MS analysis at 0, 1, 2, 3, and 4 h after incubation, followed by an immediate replacement of 400 μL of the same solutions. At the end of the transport experiment, integrity of the monolayer was monitored by TEER value.
(§4) 400 μL of samples obtained from the Caco-2 cells transport assays was dried under nitrogen, and the residues were dissolved in 800 μL of 50% methanol. Followed by centrifugation at 12,000 rpm for 15 min, the supernatants were directly analyzed with UPLC-ESI-MS/MS. Chromatography-mass spectrum conditions were set as described above. The method researches of LC-MS/MS were similar to those described previously. Regression equations of gelsemine, humantenidine, koumine, gelsenicine, gelsevirine, and humantenine were Y = 23675X − 2864 (r = 0.9995), Y = 66331X + 13558 (r = 0.9995), Y = 6268X − 1503 (r = 0.9996), Y = 91160X − 10147 (r = 0.9998), Y = 32116X − 3951 (r = 0.9990), and Y = 36977X + 13830 (r = 0.9994), respectively.
(§5) All experiments were run in triplicate. […] The apparent permeability coefficients (Papp) for both the absorptive direction (AP→BL) and the efflux direction (BL→AP) studies were calculated according to the following:(3) Papp=dQ/dt/A×C0, where dQ/dt (μg·min^−1) is the drug permeation rate, A (cm^2) is the filter surface area, and C0 (μg·mL^−1) is the initial concentration in the donor chamber at t = 0 min.
(§6) The efflux ratio (γ) was calculated with the following equation:(4) γ=PappBL-AP/PappAP-BL.

Another data set relates to Caco-2 cells monolayer. The data set is described as above. The class given is in vitro ADME, Human. The settings on record: for decrement of absorbance percentage: GM (GE combined with MP) versus GE sample; for efflux Papp relative to absorptive Papp: GM sample; for efflux ratio γ (Papp BL-AP / Papp AP-BL): GM without inhibitor. The method, then: as §1, §2, §3, §4, §5, §6

In a further data set the target is T1, P-gp (Homo sapiens, UniProt P08183).
T1 construct: endogenous in cells; host or cells: Caco-2 cells (cell bank of Chinese Academy of Sciences)
The experiment in a line: Inhibition transport study: GM with verapamil (P-gp inhibitor) across Caco-2 cells monolayer. The class given is in vitro ADME. The settings on record: for decrease of efflux ratio γ: GM + verapamil compared with GM; for Papp A→B at 4 h / Papp B→A at 4 h / efflux ratio at 4 h / Papp A→B / Papp B→A / efflux ratio: human, Caco-2; for Papp A→B at 4 h / Papp B→A at 4 h / Papp A→B / Papp B→A: GM + verapamil (50 μmol), mean ± SEM, n = 3; for Papp A→B at 4 h / Papp A→B: apical-to-basolateral; for Papp B→A at 4 h / Papp B→A: basolateral-to-apical; for efflux ratio at 4 h / efflux ratio: GM + verapamil, read-out: efflux ratio γ (Papp BL-AP / Papp AP-BL). As to the method:
(§7) As efflux transporters (P-gp and MRP2) are expressed on the apical side of Caco-2 cells, the absorption or efflux transport of indole alkaloids across this model was investigated in the presence of efflux transporters inhibitors. A selective P-gp inhibitor, verapamil (50 μmol), was added to GM. 10 μmol ciclosporin (a P-gp and MRP2 inhibitor) was also added to GM. The control group was set as well. After the preincubation, the different mixes were performed in Caco-2 cells monolayer. Transport studies were undertaken as mentioned above in the absorptive direction (AP-BL) and the efflux direction (BL-AP), separately. The samples were taken at 0, 1, 2, 3, and 4 h for LC-MS/MS analysis. The absorption and efflux transport apparent permeability (Papp) of indole alkaloids were determined.
as §5, §6
(§8) The γ values are used to assess the effect of efflux transporters on the test compounds in the presence and absence of efflux transporters inhibitors.
(Caco-2 cells form a polarised layer with tight junctions and transporters.)

In a further data set the test system is P-gp and MRP2. Description: Inhibition transport study: GM with ciclosporin (P-gp and MRP2 inhibitor) across Caco-2 cells monolayer. The settings on record: for decrease of efflux ratio γ: GM + ciclosporin compared with GM; for Papp A→B at 4 h / Papp B→A at 4 h / efflux ratio at 4 h / Papp A→B / Papp B→A / efflux ratio: human, Caco-2; for Papp A→B at 4 h / Papp B→A at 4 h / Papp A→B / Papp B→A: GM + ciclosporin (10 μmol), mean ± SEM, n = 3; for Papp A→B at 4 h / Papp A→B: apical-to-basolateral; for Papp B→A at 4 h / Papp B→A: basolateral-to-apical; for efflux ratio at 4 h / efflux ratio: GM + ciclosporin, read-out: efflux ratio γ (Papp BL-AP / Papp AP-BL). The format is in vitro ADME, Human. The method, then:
as §7, §5, §6, §8

T1 sequence (P08183 whole entry): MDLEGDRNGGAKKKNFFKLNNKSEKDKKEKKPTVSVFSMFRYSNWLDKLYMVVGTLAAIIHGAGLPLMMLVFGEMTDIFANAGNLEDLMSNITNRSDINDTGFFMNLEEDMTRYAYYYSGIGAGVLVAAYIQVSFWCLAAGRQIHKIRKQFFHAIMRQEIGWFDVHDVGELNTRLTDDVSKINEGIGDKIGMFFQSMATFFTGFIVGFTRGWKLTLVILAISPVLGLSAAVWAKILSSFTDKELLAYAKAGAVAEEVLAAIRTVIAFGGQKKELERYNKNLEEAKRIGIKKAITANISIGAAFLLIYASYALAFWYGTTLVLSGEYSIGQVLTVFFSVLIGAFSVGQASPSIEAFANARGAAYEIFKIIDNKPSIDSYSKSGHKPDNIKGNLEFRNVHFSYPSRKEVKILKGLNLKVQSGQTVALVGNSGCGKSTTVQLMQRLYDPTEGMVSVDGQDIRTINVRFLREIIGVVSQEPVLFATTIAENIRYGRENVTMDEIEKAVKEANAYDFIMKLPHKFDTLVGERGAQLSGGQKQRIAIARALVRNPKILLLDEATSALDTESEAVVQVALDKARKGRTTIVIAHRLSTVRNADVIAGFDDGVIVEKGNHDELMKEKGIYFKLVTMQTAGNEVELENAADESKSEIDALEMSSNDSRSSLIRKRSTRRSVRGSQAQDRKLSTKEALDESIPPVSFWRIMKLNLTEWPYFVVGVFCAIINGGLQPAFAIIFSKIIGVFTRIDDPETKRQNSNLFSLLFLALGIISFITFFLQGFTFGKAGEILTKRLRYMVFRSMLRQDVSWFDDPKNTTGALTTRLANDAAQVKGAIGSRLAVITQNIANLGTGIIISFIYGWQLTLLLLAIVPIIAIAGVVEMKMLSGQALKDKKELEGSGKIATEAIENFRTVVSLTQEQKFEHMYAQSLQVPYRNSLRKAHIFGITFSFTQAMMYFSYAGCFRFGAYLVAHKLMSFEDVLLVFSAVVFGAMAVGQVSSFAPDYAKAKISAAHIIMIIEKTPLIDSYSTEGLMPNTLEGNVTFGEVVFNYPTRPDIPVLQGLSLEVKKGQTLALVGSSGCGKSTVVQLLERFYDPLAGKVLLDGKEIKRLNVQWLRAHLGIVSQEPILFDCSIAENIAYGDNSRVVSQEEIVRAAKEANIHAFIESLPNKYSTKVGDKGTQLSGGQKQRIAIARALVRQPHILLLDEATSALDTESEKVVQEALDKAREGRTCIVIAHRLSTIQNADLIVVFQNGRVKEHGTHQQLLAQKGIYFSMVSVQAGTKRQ

Turning to `CCC1=N[C@H]2C[C@@]3(C(=O)N(OC)c4ccccc43)[C@H]3C[C@@H]1[C@@H]2CO3` [Gelsenicine, gelsenicine], in data set [1], the efflux ratio at 4 h is above 2, the Papp A→B at 4 h was 2.8 ± 0.11 ×10⁻⁶ cm/s and the Papp B→A at 4 h stood at 6.69 ± 1.35 ×10⁻⁶ cm/s. For the same molecule, in the data set with Caco-2 cells monolayer (apical to basolateral), the “decrement of absorbance percentage” value is on record as “about 12%”. In the data set on Caco-2 cells monolayer, the “efflux Papp relative to absorptive Papp” value is listed as “approximately 2.0 times” and the “efflux ratio γ (Papp BL-AP / Papp AP-BL)” value is on record as 2.39. Besides, on P-gp, the “decrease of efflux ratio γ” value is 41.42%, the Papp A→B at 4 h turned out to be 86.6 ± 15.8 ×10⁻⁶ cm/s, the Papp B→A at 4 h worked out at 122 ± 26.1 ×10⁻⁶ cm/s and the efflux ratio at 4 h was determined as 1.4. In addition, in the data set with P-gp and MRP2, the “decrease of efflux ratio γ” value turned out to be 40.59%, the Papp A→B at 4 h came out at 101 ± 28.4 ×10⁻⁶ cm/s, the Papp B→A at 4 h is 143 ± 10.8 ×10⁻⁶ cm/s and the efflux ratio at 4 h was 1.42.
Turning to `C/C=C1\CN(C)[C@H]2C[C@@]3(C(=O)N(OC)c4ccccc43)[C@H]3C[C@@H]1[C@@H]2CO3` [Humantenine, humantenine], in data set [1], the efflux ratio worked out at 1.46, the Papp A→B amounted to 6.93 ± 1.59 ×10⁻⁶ cm/s and the Papp B→A was 9.87 ± 1.75 ×10⁻⁶ cm/s. In addition, the “decrement of absorbance percentage” value in the data set with Caco-2 cells monolayer (apical to basolateral) is on record as “about 12%”. In addition, on P-gp, the “decrease of efflux ratio γ” value came out at 8.90%, the Papp A→B turned out to be 437 ± 71.2 ×10⁻⁶ cm/s, the Papp B→A came to 580 ± 109 ×10⁻⁶ cm/s and the efflux ratio was determined as 1.33. For the same molecule, in the data set with P-gp and MRP2, the “decrease of efflux ratio γ” value is recorded as 15.07%, the Papp A→B amounted to 515 ± 101 ×10⁻⁶ cm/s, the Papp B→A was 637 ± 90.1 ×10⁻⁶ cm/s and the efflux ratio amounted to 1.24.
`C=C[C@]12CN(C)[C@@H]3[C@H]4CO[C@H](C[C@H]41)[C@]1(C(=O)Nc4ccccc41)[C@@H]32` [Gelsemine, gelsemine]: the efflux ratio at 4 h in data set [1] was around 1; at P-gp, 1.09; in the data set on P-gp and MRP2, 1.1. Also, the Papp A→B at 4 h in data set [1] came to 6.83 ± 2.64 ×10⁻⁶ cm/s; at P-gp, 30.3 ± 7.45 ×10⁻⁶ cm/s; in the data set on P-gp and MRP2, 35.6 ± 7.63 ×10⁻⁶ cm/s. In addition, the Papp B→A at 4 h in data set [1] is 7.33 ± 2.77 ×10⁻⁶ cm/s; on P-gp, 33.2 ± 8 ×10⁻⁶ cm/s; in the data set on P-gp and MRP2 it was 39.1 ± 8.91 ×10⁻⁶ cm/s. Moreover, the “efflux ratio γ (Papp BL-AP / Papp AP-BL)” value in the data set with Caco-2 cells monolayer came to 1.07.
With `CCC1=NC2CC3(C(=O)N(OC)c4ccccc43)C3OCC2C1C3O` (centres unmarked) [Humantenidine, humantenidine], in data set [1], the efflux ratio was above 2, the Papp A→B is 0.14 ± 0.044 ×10⁻⁶ cm/s and the Papp B→A was 0.41 ± 0.05 ×10⁻⁶ cm/s. Moreover, in the data set with Caco-2 cells monolayer (GE sample, apical to basolateral, during 4 h), the “absorbance percentage, rank among all indole alkaloids” value is on record as “highest”. In the data set with Caco-2 cells monolayer, the “efflux Papp relative to absorptive Papp” value was “approximately 2.0 times” and the “efflux ratio γ (Papp BL-AP / Papp AP-BL)” value worked out at 2.93. Further, on P-gp, the “decrease of efflux ratio γ” value is 43.69%, the Papp A→B was 3.14 ± 1.19 ×10⁻⁶ cm/s, the Papp B→A was determined as 6.17 ± 0.57 ×10⁻⁶ cm/s and the efflux ratio came out at 1.65. In addition, in the data set with P-gp and MRP2, the “decrease of efflux ratio γ” value is 42.32%, the Papp A→B turned out to be 4.48 ± 1.06 ×10⁻⁶ cm/s, the Papp B→A was 7.57 ± 0.36 ×10⁻⁶ cm/s and the efflux ratio was 1.69.
As to `C=C[C@@]12CN(C)[C@H]3C[C@]14C(=Nc1ccccc14)[C@H]1C[C@@H]2[C@@H]3CO1` [Koumine, koumine], in data set [1], the efflux ratio was around 1, the Papp A→B came to 11.8 ± 4.01 ×10⁻⁶ cm/s and the Papp B→A is 13.4 ± 3.84 ×10⁻⁶ cm/s. In addition, the “efflux ratio γ (Papp BL-AP / Papp AP-BL)” value with Caco-2 cells monolayer is on record as 1.13. On P-gp, the Papp A→B came to 348 ± 67.4 ×10⁻⁶ cm/s, the Papp B→A was 416 ± 80.5 ×10⁻⁶ cm/s and the efflux ratio came to 1.19. Moreover, in the data set on P-gp and MRP2, the Papp A→B was 440 ± 93.3 ×10⁻⁶ cm/s, the Papp B→A worked out at 524 ± 91.5 ×10⁻⁶ cm/s and the efflux ratio was 1.19.
Consider `C=CC12CN(C)C3C4COC(CC41)C1(C(=O)N(OC)c4ccccc41)C32` (centres unmarked) [Gelsevirine, gelsevirine], for which, in data set [1], the efflux ratio is above 2, the Papp A→B amounted to 6.33 ± 2.31 ×10⁻⁶ cm/s and the Papp B→A came out at 12.7 ± 2.67 ×10⁻⁶ cm/s. The “decrement of absorbance percentage” value with Caco-2 cells monolayer (apical to basolateral) is “over 3%”. Moreover, in the data set with Caco-2 cells monolayer, the “efflux Papp relative to absorptive Papp” value is “approximately 2.0 times” and the “efflux ratio γ (Papp BL-AP / Papp AP-BL)” value was determined as 2.00. Also, at P-gp, the “decrease of efflux ratio γ” value turned out to be 36.00%, the Papp A→B came to 392 ± 58.1 ×10⁻⁶ cm/s, the Papp B→A is 503 ± 93 ×10⁻⁶ cm/s and the efflux ratio is 1.28. In addition, in the data set with P-gp and MRP2, the “decrease of efflux ratio γ” value came to 34.00%, the Papp A→B came to 464 ± 93.8 ×10⁻⁶ cm/s, the Papp B→A turned out to be 614 ± 56.8 ×10⁻⁶ cm/s and the efflux ratio is 1.32.
